Laboratory results taken from ChEMBL document CHEMBL1201862, “PubChem BioAssay data set” (2004).
The source made the active and inactive calls.

Tests used:
[1] = tested on: Streptococcus sp. 'group A'; assay: Streptococcus pyogenes SK(-)GAS viability under kanamycin – luminescence, BacTiterGlo, confirmation, counter-screen for streptokinase expression inhibitor project, dose response (AID 1900); format: functional, organism-based
Streptokinase A = molecular target: T1, Streptokinase A (Streptococcus pyogenes serotype M1, UniProt P10520); assay: viability-normalized secreted streptokinase activity reduction – plasminogen activation absorbance, OD405, dose response (AID 1914); format: functional, Streptococcus pyogenes M1 GAS;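 also: secreted streptokinase activity via plasminogen activation per viability signal from cell pellet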
T1 sequence (P10520 whole entry): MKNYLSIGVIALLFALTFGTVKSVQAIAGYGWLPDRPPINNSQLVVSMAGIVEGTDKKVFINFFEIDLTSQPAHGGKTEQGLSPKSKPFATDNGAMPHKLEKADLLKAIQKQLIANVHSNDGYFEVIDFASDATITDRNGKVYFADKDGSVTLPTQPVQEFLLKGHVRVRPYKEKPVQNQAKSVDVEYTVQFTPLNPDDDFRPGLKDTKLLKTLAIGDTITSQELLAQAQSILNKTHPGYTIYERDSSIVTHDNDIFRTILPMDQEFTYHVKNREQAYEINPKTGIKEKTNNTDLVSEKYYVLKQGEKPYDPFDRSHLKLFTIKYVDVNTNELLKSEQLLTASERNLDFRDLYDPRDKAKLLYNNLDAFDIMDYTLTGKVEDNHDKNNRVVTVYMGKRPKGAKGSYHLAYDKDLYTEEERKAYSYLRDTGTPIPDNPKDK

Streptococcus = assay: GAS UMAA2166 growth inhibition – luminescence, BacTiterGlo, counter-screen for streptokinase expression inhibitor project, dose response (AID 1915); format: functional, organism-based;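 also: potency for reduction of bacterial viability or growth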
[2] = blockers of HIV-1 envelope-mediated cell-cell fusion – cherry-pick, dose response (AID 652057); format: functional, cell-based
[3] = viability loss in CEM21 cells – cell-based, CellTiter-Glo luminescence, cherry-picked, cytotoxicity control for viral fusion inhibitor project, dose response (AID 652042); format: functional;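 also: potency for signal decrease meaning cytotoxicity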
[4] = blockers of HIV-1 ZM109 envelope-driven cell-cell fusion – HeLa effector, CEM target cells, luciferase, cherry-pick, dose response (AID 652058); format: functional, cell-based;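 also: luciferase signal from HIV-1 Env mediated cell-cell fusion of effector and target cells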
[5] = off-target signal loss in HeLa-CEM21 co-culture – HeLa F-luc CTL cells, cherry-picked, counter-screen for HIV-1 Env fusion inhibitor project, dose response (AID 652040); format: functional, cell-based;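 also: potency for signal decrease marking cytotoxic or nonspecific inhibition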
[6] = HIV-1 AD8 envelope cell-cell fusion blockers – cherry-pick, dose response (AID 652062); format: functional, cell-based;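 also: luciferase signal from cell-cell fusion driven by HIV-1 clade B AD8 Env; potency is for inhibitors of fusion seen as a drop in luminescence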
[7] = intracellular Trypanosoma cruzi inhibitors in host cells – cell-based, plate reader, cherry-pick samples, set 3, dose response (AID 651818); format: functional;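 also: compounds incubated with infected cells for about four days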
[8] = molecular target: T2, Short transient receptor potential channel 4 (Mus musculus, UniProt Q9QUQ5); assay: block of DAMGO-driven TRPC4 calcium entry – cell-based, HEK293 TRPC4/mu-opioid, Fluo-4 calcium, dose response (AID 434942); format: functional;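 also: potency of inhibitors blocking the TRPC4 calcium response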
T2 sequence (Q9QUQ5 whole entry): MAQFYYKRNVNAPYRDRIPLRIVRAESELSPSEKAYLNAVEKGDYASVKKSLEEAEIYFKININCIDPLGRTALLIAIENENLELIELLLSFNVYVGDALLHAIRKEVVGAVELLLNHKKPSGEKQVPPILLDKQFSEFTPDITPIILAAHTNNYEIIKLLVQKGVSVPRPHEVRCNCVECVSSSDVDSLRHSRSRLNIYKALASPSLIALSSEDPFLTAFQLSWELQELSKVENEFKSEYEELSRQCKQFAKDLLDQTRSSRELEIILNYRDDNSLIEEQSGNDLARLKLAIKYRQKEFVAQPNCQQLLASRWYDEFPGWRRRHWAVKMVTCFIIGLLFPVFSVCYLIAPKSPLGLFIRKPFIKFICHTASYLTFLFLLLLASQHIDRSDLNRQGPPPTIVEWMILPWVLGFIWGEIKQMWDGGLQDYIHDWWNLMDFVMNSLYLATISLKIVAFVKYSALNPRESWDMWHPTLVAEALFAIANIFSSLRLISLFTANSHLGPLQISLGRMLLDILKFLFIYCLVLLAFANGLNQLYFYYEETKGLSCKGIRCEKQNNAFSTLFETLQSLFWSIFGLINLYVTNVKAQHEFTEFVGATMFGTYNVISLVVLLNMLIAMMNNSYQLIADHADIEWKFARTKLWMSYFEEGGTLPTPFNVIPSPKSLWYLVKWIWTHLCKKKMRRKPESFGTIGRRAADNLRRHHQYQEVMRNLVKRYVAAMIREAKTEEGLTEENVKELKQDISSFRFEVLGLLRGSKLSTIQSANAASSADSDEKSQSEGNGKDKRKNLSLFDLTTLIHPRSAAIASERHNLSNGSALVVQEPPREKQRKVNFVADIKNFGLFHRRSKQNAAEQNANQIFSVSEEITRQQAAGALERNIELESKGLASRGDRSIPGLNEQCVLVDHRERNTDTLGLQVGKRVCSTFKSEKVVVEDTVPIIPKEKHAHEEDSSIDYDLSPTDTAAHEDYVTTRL

Cytochrome P450 2C19 = Cytochrome P450 2C19 (Homo sapiens, UniProt P33261); assay: Cytochrome panel assay with activity outcomes. Panel member name: p450-cyp2c19 Compounds with AC50 equal or less than 10 uM are considered active; format: functional; settings: read-out: AC50
Chain of Cytochrome P450 2C19 (P33261 whole entry): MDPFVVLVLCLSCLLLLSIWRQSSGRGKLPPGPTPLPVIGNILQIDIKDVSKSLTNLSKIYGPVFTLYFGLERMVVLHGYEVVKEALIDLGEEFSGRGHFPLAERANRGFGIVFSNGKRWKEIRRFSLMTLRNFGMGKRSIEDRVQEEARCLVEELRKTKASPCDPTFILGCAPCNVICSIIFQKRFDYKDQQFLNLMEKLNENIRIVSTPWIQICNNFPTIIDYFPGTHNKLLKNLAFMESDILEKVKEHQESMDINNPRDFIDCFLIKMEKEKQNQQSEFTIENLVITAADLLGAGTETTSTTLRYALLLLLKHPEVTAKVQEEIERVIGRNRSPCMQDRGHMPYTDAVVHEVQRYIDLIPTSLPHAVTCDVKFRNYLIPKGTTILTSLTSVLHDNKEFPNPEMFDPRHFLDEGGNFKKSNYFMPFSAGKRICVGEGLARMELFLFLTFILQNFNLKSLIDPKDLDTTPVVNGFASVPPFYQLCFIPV

Cytochrome P450 3A4 = Cytochrome P450 3A4 (Homo sapiens, UniProt P08684);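 also: CYP3A4 tested as one member of a cytochrome P450 panel screen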
Chain of Cytochrome P450 3A4 (P08684 whole entry): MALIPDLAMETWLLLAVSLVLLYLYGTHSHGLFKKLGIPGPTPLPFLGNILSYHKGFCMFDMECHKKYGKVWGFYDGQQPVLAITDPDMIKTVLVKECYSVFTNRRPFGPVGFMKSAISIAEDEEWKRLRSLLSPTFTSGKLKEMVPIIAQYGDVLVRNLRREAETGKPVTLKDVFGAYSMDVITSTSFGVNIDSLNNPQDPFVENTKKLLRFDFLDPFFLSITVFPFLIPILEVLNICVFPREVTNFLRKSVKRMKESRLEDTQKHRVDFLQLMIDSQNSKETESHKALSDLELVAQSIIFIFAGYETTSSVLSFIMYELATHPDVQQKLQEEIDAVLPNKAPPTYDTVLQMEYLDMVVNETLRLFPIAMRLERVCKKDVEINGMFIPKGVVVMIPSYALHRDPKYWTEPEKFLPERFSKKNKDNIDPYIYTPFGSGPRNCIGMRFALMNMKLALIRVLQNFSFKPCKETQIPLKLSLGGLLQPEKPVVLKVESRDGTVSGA

Cytochrome P450 2C9 = Cytochrome P450 2C9 (Homo sapiens, UniProt P11712)
Chain of Cytochrome P450 2C9 (P11712 whole entry): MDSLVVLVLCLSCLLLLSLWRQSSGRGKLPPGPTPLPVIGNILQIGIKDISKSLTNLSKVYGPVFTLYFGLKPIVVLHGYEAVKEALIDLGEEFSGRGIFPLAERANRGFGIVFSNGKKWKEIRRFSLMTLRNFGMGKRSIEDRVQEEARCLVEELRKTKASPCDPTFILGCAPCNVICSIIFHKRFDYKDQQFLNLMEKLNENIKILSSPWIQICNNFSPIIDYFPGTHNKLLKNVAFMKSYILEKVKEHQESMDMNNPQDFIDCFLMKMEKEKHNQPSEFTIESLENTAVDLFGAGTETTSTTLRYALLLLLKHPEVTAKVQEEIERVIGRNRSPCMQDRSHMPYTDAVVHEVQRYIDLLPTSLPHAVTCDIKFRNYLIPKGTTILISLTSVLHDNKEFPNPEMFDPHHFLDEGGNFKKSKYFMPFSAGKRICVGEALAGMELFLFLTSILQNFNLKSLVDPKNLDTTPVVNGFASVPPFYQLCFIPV

[9] = luciferase reporter signal suppression in cells – H4 neuroglioma cells, luminescence, dose response (AID 1990); format: functional, cell-based
[10] = Luminescence Cell-Based Dose Response HTS to Identify Inhibitors of 5'UTR Stem-Loop Driven Prion Protein mRNA Translation in H4 Neuroglioblastoma Cells. [Related pubchem assays: 1827 (Project Summary), 1813 (Primary HTS)]; format: functional
[11] = alpha-synuclein stem-loop luciferase translation blockers – H4 neuroglioma cells, luminescence, confirmation (AID 1988); format: functional, cell-based
[12] = molecular target: T3, Polyadenylate-binding protein 1 (Homo sapiens, UniProt P11940); assay: MLLE binding blockers, Cy5 peptide tracer – biochemical, fluorescence polarization, Cy5-PAM2 peptide, secondary, miRNA deadenylation inhibitor project, dose response (AID 602260); format: functional; settings: read-out: IC50_Mean
T3 sequence (P11940 whole entry, the tested form may be a part): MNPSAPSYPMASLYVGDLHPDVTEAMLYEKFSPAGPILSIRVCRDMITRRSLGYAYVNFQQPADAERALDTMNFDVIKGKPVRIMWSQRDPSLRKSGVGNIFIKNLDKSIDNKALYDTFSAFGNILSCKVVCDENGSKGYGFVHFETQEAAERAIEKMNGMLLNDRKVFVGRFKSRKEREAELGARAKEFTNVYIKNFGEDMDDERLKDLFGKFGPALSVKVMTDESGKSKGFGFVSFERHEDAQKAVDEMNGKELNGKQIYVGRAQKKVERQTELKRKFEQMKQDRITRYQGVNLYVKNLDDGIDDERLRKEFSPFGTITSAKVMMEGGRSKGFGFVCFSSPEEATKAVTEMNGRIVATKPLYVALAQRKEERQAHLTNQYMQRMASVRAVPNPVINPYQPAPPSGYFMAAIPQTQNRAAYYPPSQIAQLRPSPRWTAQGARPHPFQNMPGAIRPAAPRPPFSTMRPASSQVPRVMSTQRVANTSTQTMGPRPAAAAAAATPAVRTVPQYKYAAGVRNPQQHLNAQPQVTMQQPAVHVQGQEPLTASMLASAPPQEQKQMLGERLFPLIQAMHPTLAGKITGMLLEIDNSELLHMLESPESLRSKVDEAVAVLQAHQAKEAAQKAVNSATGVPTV

[13] = molecular target: T3, Polyadenylate-binding protein 1; assay: MLLE domain peptide-binding blockers, IC50 – biochemical, fluorescence polarization, FITC-PAM2 peptide, dose response (AID 602259); format: functional; settings: read-out: IC50_Mean

Q: Which results are given for `CN1CC(c2ccc(Cl)c(Cl)c2)[C@@]2(COc3ccccc3C2=O)[C@@]12C(=O)Nc1ccccc12` (some centres undefined)?
A: EC50 [1]: 2.96 µM (active); EC50 (Streptokinase A): 1.55 µM (active); EC50 (Streptococcus): > 150 µM (not active); AC50 [2]: 9.06 µM (active); AC50 [3]: 45.7 µM (active); AC50 [4]: 9.1 µM (active); AC50 [5]: 14.7 µM (active); AC50 [6]: 31.3 µM (active)

Q: With `Cc1noc(C)c1S(=O)(=O)Nc1ccc2c(c1)CC(=O)N([C@H](C)CO)C[C@@H](C)[C@@H](CN(C)Cc1ccc(C(=O)Nc3ccccc3N)cc1)O2` as the compound, how does the AC50 [7] read?
A: 3.1 µM (active)

Q: For `CNCc1c(OCc2ccccc2)ccc2ccccc12`, which EC50 [8] is on record?
A: 3.76 µM (active)

Q: Which EC50 [8] does the source give for `CCOC(=O)C1(Cc2cccc(OC)c2)CCN(Cc2ccc(OC)c(O)c2)CC1` here?
A: 0.944 µM (active)

Q: Which EC50 [8] does the source give for `Cc1cccc(Cn2c(C(C)(C)C)cc3cccnc32)c1` here?
A: 0.531 µM (active)

Q: With `Cc1ccc(S(=O)(=O)Nc2ccc3c(c2)CC(=O)N([C@@H](C)CO)C[C@@H](C)[C@@H](CN(C)Cc2ccc(-c4ccccc4)cc2)O3)cc1` as the compound, how does the AC50 [7] read?
A: 3.03 µM (active)

Q: For `COc1ccc(S(=O)(=O)N2CCC[C@H]2C(=O)NC2=NCCS2)cc1`, which AC50 (Cytochrome P450 2C19) is on record?
A: 35.5 µM (inconclusive)

Q: What about the AC50 (Cytochrome P450 3A4) of the same compound?
A: 17.8 µM (inconclusive)

Q: What about the AC50 (Cytochrome P450 2C9) of the same compound?
A: inconclusive

Q: Which results are given for `Cc1c(CCOC(=O)C23CC4CC(CC(C)(C4)C2)C3)sc[n+]1CC(=O)c1ccccc1`?
A: AC50 [2]: 1.96 µM (active); AC50 [3]: 20.5 µM (active); AC50 [4]: 5.44 µM (active); AC50 [5]: 5.26 µM (active); AC50 [6]: 8.8 µM (active)

Q: For `NC1=NC2=C(CCCC2)C2(CCCCC2)S1`, which EC50 [9] is on record?
A: > 120 µM (not active)

Q: And the EC50 [10]?
A: 34.5 µM (active)

Q: What about the EC50 [11] of the same compound?
A: 9.28 µM (active)

Q: What about the EC50 [8] of the same compound?
A: 1.19 µM (active)

Q: Which AC50 [7] does the source give for `C[C@@H]1CCCCO[C@H](CN(C)CC2CCCCC2)[C@@H](C)CN([C@H](C)CO)C(=O)c2cc(NC(=O)Nc3ccc(F)cc3)ccc2O1` here?
A: 2.33 µM (active)

Q: For `CC1(C)CC2=Nc3ccccc3NC(c3ccccc3F)C2=C(O)C1` (centres undefined), which IC50 [12] is on record?
A: > 66 µM (inactive)

Q: And the IC50 [13]?
A: > 66 µM (inactive)

Q: Which EC50 [8] does the source give for `Cc1c(N(C)S(=O)(=O)c2cc(C(=O)NCC3CCCO3)ccc2Cl)c(=O)n(-c2ccccc2)n1C` (centres undefined) here?
A: 1.88 µM (active)
